Laboratory results: patent US6294562A, “Salts of ethyl 3-(2-(4-(4-amino-imino-methyl)phenyl)-4-methyl-2,5-dioxo-imidazolidin-1-yl )acetylamino)-3-phenylpropionate” (Hoechst Aktiengesellschaft, priority 1996, dated 2001)

Assays:
[1] = tested on: coronary cyclic flow variations (recurrent formation of platelet rich thrombi); test: Coronary cyclic flow variations in dogs (model of unstable angina); format: in vivo, dog
Excerpt: (§1) Dogs of either sex (20-35 kg) were anesthetized (Ketamine plus sodium pentobarbital infusion), ventilated and instrumented for the measurement of hemodynamic parameters (peripheral and left ventricular blood pressure, myocardial contractility, heart rate), and ECG. Blood gases and hematocrit were kept constant by infusion of electrolytes. After a left thoracotomy, the heart was exposed and the left circumflex coronary artery (LCX) was instrumented with an electromagnetic flow probe to measure mean coronary blood flow. Distal to the flow probe, the LCX was shortly squeezed with forceps in order to damage the endothelium, and a small concentrically constricting plastic cylinder was placed onto the damaged site (between 1.0 and 1.7 mm inner diameter, depending on the size of the LCX, and 4 mm length). The constrictor abolished the reactive hyperemic response to a 10 second occlusion of the LCX and initiated the appearance of flow cycles (approx. 10 per hour) resulting from recurrent formation of platelet rich thrombi at the stenosed site. After 60 min of regular cyclic flow variations, the test compounds were administered by intravenous or intraduodenal bolus application. Cyclic flow variations were further monitored for at least 2 to 5 hours. Percent inhibition of coronary thrombotic cyclic flow variations was calculated by comparison of the mean number of cyclic flow variations per hour before and after administration of the compound in 5 to 8 animals. In control animals, the number of cyclic flow variations per hour remained constant for several hours. (References: Folts, J. D. et al. (1976), Circulation 54: 365-370; Just, M. et al. (1989), J. Cardiovasc. Pharmacol. 14 (suppl. 11): S 129-136)
When ethyl (S)-3-(2-((S)-4-(4-(amino-imino-methyl)phenyl)-4methyl-2,5-dioxoimidazolidin-1-yl)acetylamino)-3-phenylpropionate hydrogen maleate was examined the following results were obtained. Given is the percent reduction of the number of stenosis induced coronary cyclic flow variations (CFV's) per hour in the first, the second and the third hour after administration of the test compound as compared to the predrug period. The dose is given in mg per kg of body weight.

[2] = Cutaneous bleeding time in dogs (Simplate 1 device); format: in vivo, dog; settings: for maximal prolongation of bleeding time: p<0.05
Protocol: (§2) Dogs of either sex (mixed breed of Labrador/Harrier, body weight 21-28 kg) were fasted overnight. The test compounds were administered orally in gelatine capsules or intravenously. Before administration of the test compounds and several times during 24 hours thereafter, 20 ml of blood were withdrawn from the cephalic vein into acid citrate dextrose (9+1volumes). Platelet rich plasma (PRP) was obtained by centrifugation. Platelet aggregation was measured in PRP after addition of either ADP (3-30 μmol/l) or collagen (0.3-10 μg/ml) plus epinephrine (10 μM) at 37° C. in an aggregometer (BioData). Percent of maximal aggregation before and after drug administration was compared. The percent inhibition of aggregation at the lowest concentration of the agonist which induced irreversible maximal aggregation is given. In addition, the cutaneous bleeding time was measured at the shaved inner forearm using the Simplate® 1 device at the times of blood collection. Percent prolongation of bleeding time after drug administration as compared to the predrug value is calculated.

[3] = Hemodynamic parameters in the coronary cyclic flow variation model in dogs; format: in vivo, dog; settings: all hemodynamic parameters, intravenous or intraduodenal
Excerpt: as §1, with “After 60 min of regular cyclic flow variations, the test compounds were administered by intravenous or intraduodenal bolus application.” left out, “In control animals, the number of cyclic flow variations per hour remained constant for several hours. (References: Folts, J. D. et al. (1976), Circulation 54: 365-370; Just, M. et al. (1989), J. Cardiovasc. Pharmacol. 14 (suppl. 11): S 129-136)” left out

[4] = tested on: collagen induced ex vivo platelet aggregation; test: Ex vivo platelet aggregation inhibition in dogs, collagen induced; design: species or system dog; settings: collagen plus epinephrine
Protocol: as §2
(§3) When ethyl (S)-3-(2-( (S)-4-(4-(amino-imino-methyl) phenyl)-4-methyl-2,5-dioxoimidazolidin-1-yl)acetylamino)-3-phenylpropionate hydrogen maleate was examined the following results were obtained. Given is the percent inhibition of platelet aggregation 1 h, 4 h, 8 h and 24 h after administration of the test substance. The dose is given in mg per kg body weight. n is the number of dogs tested.

[5] = Determination of water vapor sorption (automatic two-limbed microbalance, 25° C.); format: physicochemical
Protocol: The water uptake of a substance was determined using an automatic two-limbed microbalance which is operated in vacuo or in an atmosphere which has a defined composition or a defined pressure. The dry sample is located on one side of the balance and a taring weight is located on the other side. A water vapor atmosphere, whose pressure was increased stepwise, was generated in the weighing space. The increase in weight of the sample as a function of the water vapor pressure was recorded. The measurement was carried out at a constant temperature of 25° C.
The weighing space was first of all evacuated to constant weight and the starting weight of the sample was determined. A defined quantity of water vapor was then passed into the evacuated weighing space through an inlet valve. In the experiment which is reproduced below, the water vapor pressure which was set in this first step corresponds, at the measuring temperature of 25° C., to a relative atmospheric humidity of 4.7%. When constant weight was once again reached after passing in the water vapor, i.e. when the sample was in equilibrium with the water vapor atmosphere, the increase in weight of the sample was recorded. After that, the water vapor pressure was increased in several steps by passing in further water vapor (with each water vapor pressure corresponding to a defined relative atmospheric humidity at the measuring temperature of 25° C.). In each step, the increase in weight of the sample was recorded after constant weight had been reached. When ethyl (S)-3-(2-((S)-4-(4-(amino-imino-methyl)phenyl)-4-methyl-2,5-dioxo-imidazolidin-1-yl)-acetylamino)-3-phenylpropionate hydrogen maleate was examined, the following weight increases, based on the starting weight of the sample, were observed.

[6] = tested on: ADP-induced ex vivo platelet aggregation; test: Ex vivo platelet aggregation inhibition in dogs, ADP-induced; design: species or system dog; settings: for Inhibition of aggregation: ADP
Protocol: as §2, §3

[7] = Solid state form and hygroscopicity, as stated in the description; format: physicochemical; settings: hydrochloride salts
[8] = 0.5 mg/kg intravenously, n=6, after 1 h
[9] = 0.5 mg/kg intravenously, n=6, after 4 h
[10] = 0.5 mg/kg intravenously, n=6, after 8 h
[11] = 0.5 mg/kg intravenously, n=6, after 24 h
[12] = 0.5 mg/kg orally, n=6, after 1 h
[13] = 0.5 mg/kg orally, n=6, after 4 h
[14] = 0.5 mg/kg orally, n=6, after 8 h
[15] = 0.5 mg/kg orally, n=6, after 24 h
[16] = 1 mg/kg orally, n=6, after 24 h
[17] = 2 mg/kg orally, n=8, after 24 h

CCOC(=O)C[C@H](NC(=O)CN1C(=O)N[C@@](C)(c2ccc(C(=N)N)cc2)C1=O)c1ccccc1.O=C(O)/C=C\C(=O)O [Ethyl (S)-3-(2-((S)-4-(4-(amino-imino-methyl)phenyl)-4-methyl-2,5-dioxo-imidazolidin-1-yl)acetylamino)-3-phenylpropionate hydrogen maleate]
Reduction of CFV's ([1]; 0.1 mg/kg intraduodenally, first hour): 39% | Reduction of CFV's ([1]; 0.1 mg/kg intraduodenally, second hour): 62% | Reduction of CFV's ([1]; 0.1 mg/kg intraduodenally, third hour): 74% | Reduction of CFV's ([1]; 0.1 mg/kg intravenously, first hour): 52% | Reduction of CFV's ([1]; 0.1 mg/kg intravenously, second hour): 81% | Reduction of CFV's ([1]; 0.1 mg/kg intravenously, third hour): 89% | Reduction of CFV's ([1]; 0.2 mg/kg intravenously, first hour): 75% | Reduction of CFV's ([1]; 0.2 mg/kg intravenously, second hour): 96% | Reduction of CFV's ([1]; 0.2 mg/kg intravenously, third hour): 99% | Reduction of CFV's ([1]; 0.3 mg/kg intraduodenally, first hour): 23% | Reduction of CFV's ([1]; 0.3 mg/kg intraduodenally, second hour): 66% | Reduction of CFV's ([1]; 0.3 mg/kg intraduodenally, third hour): 78% | antithrombotic activity ([1]; dog, in vivo): powerful antithrombotic activity | maximal prolongation of bleeding time ([2]; 0.5 mg/kg intravenous, at 4 hours): 68% | maximal prolongation of bleeding time ([2]; 2 mg/kg oral, at 2 hours): 122% | bleeding times ([2]; at the lower oral doses (0.5 and 1 mg/kg)): not significantly changed | hemodynamic parameters recorded during the test [3]: not significantly changed | Inhibition of aggregation [4, 8]: 27% | Inhibition of aggregation [4, 9]: 26% | Inhibition of aggregation [4, 10]: 18% | Inhibition of aggregation [4, 11]: 0% | Inhibition of aggregation [4, 12]: 8% | Inhibition of aggregation [4, 13]: 19% | Inhibition of aggregation [4, 14]: 5% | Inhibition of aggregation [4, 15]: 0% | Inhibition of aggregation ([4]; 1 mg/kg orally, n=6, after 1 h): 36% | Inhibition of aggregation ([4]; 1 mg/kg orally, n=6, after 4 h): 67% | Inhibition of aggregation ([4]; 1 mg/kg orally, n=6, after 8 h): 50% | Inhibition of aggregation [4, 16]: 11% | Inhibition of aggregation ([4]; 2 mg/kg orally, n=8, after 1 h): 28% | Inhibition of aggregation ([4]; 2 mg/kg orally, n=8, after 4 h): 65% | Inhibition of aggregation ([4]; 2 mg/kg orally, n=8, after 8 h): 60% | Inhibition of aggregation [4, 17]: 20% | hygroscopicity ([5]; 25° C.): not hygroscopic | increase in weight ([5]; relative atmospheric humidity of approx. 80%): approx. 0.5% | Increase in weight of the sample ([5]; relative humidity 4.7%, 25° C.): 0.06% | Increase in weight of the sample ([5]; relative humidity 18.5%, 25° C.): 0.11% | Increase in weight of the sample ([5]; relative humidity 32.8%, 25° C.): 0.16% | Increase in weight of the sample ([5]; relative humidity 49.6%, 25° C.): 0.23% | Increase in weight of the sample ([5]; relative humidity 64.7%, 25° C.): 0.33% | Increase in weight of the sample ([5]; relative humidity 75.5%, 25° C.): 0.43% | Increase in weight of the sample ([5]; relative humidity 82.1%, 25° C.): 0.54% | Inhibition of aggregation [6, 8]: 93% | Inhibition of aggregation [6, 9]: 88% | Inhibition of aggregation [6, 10]: 59% | Inhibition of aggregation [6, 11]: 16% | Inhibition of aggregation [6, 12]: 46% | Inhibition of aggregation [6, 13]: 83% | Inhibition of aggregation [6, 14]: 33% | Inhibition of aggregation [6, 15]: 18% | Inhibition of aggregation ([6]; 1 mg/kg orally, n=6, after 1 h): 76% | Inhibition of aggregation ([6]; 1 mg/kg orally, n=6, after 4 h): 97% | Inhibition of aggregation ([6]; 1 mg/kg orally, n=6, after 8 h): 86% | Inhibition of aggregation [6, 16]: 70% | Inhibition of aggregation ([6]; 2 mg/kg orally, n=8, after 1 h): 64% | Inhibition of aggregation ([6]; 2 mg/kg orally, n=8, after 4 h): 86% | Inhibition of aggregation ([6]; 2 mg/kg orally, n=8, after 8 h): 78% | Inhibition of aggregation [6, 17]: 49% | efficacy as inhibitor of platelet aggregation ([6]; in words, ADP- and collagen-induced): pronounced efficacy

CCOC(=O)C[C@@H](NC(=O)CN1C(=O)N[C@](C)(c2ccc(C(=N)N)cc2)C1=O)c1ccccc1 [ethyl (R)-3-(2-((R)-4-(4-(amino-imino-methyl)phenyl)-4-methyl-2,5-dioxo-imidazolidin-1-yl)acetylamino)-3-phenylpropionate]
solid state form [7]: amorphous and cannot be obtained in the crystalline state

CCOC(=O)C[C@@H](NC(=O)CN1C(=O)N[C@@](C)(c2ccc(C(=N)N)cc2)C1=O)c1ccccc1 [ethyl (R)-3-(2-((S)-4-(4-(amino-imino-methyl)phenyl)-4-methyl-2,5-dioxoimidazolidin-1-yl)acetylamino)-3-phenylpropionate]
solid state form [7]: amorphous and cannot be obtained in the crystalline state

CCOC(=O)C[C@H](NC(=O)CN1C(=O)N[C@](C)(c2ccc(C(=N)N)cc2)C1=O)c1ccccc1 [ethyl (S)-3-(2-((R)-4-(4-(amino-imino-methyl)phenyl)-4-methyl-2,5-dioxoimidazolidin-1-yl)-acetylamino)-3-phenylpropionate]
solid state form [7]: amorphous and cannot be obtained in the crystalline state

CCOC(=O)C[C@H](NC(=O)CN1C(=O)N[C@@](C)(c2ccc(C(=N)N)cc2)C1=O)c1ccccc1 [ethyl (S)-3-(2-((S)-4-(4-(amino-imino-methyl)phenyl)-4-methyl-2,5-dioxoimidazolidin-1-yl)acetylamino)-3-phenylpropionate]
solid state form [7]: amorphous and cannot be obtained in the crystalline state
